Test results: PubChem BioAssay (NCI)
Values joined by “and” are separate entries in the source; they are usually repeats but may differ in a detail not shown here. Identical values can stand only once.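 Values below derive from 48-hour exposures of cells grown in 96-well plates, with endpoints linearly interpolated between the two concentrations bracketing the appropriate inhibition level. Here, GI50 denotes the concentration required for 50% inhibition of growth. The concentration for full growth arrest is given as TGI.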

Tests used:
Test in all cases: DTP human tumour cell line panel, 48 h
[1] = tested on: NCI-H23 lung
[2] = tested on: SK-OV-3 ovarian
[3] = tested on: NCI-H522 lung
[4] = tested on: M14 melanoma
[5] = tested on: KM12 colon
[6] = tested on: SN12C renal
[7] = tested on: OVCAR-8 ovarian
[8] = tested on: SK-MEL-5 melanoma
[9] = tested on: HS 578T breast
[10] = tested on: PC-3 prostate

Structure (SMILES)	TGI [1]	TGI [2]	TGI [3]	TGI [4]	TGI [5]	TGI [6]	TGI [7]	TGI [8]	TGI [9]	TGI [10]	GI50 [1]	GI50 [2]	GI50 [3]	GI50 [4]	GI50 [5]	GI50 [6]	GI50 [7]	GI50 [8]	GI50 [9]	GI50 [10]
COc1cccc(C2c3cc4c(cc3OC(N3CCCC3)C2C)OCO4)c1O (configuration not stated)	34.9 µM	35.2 µM	20 µM	12.6 µM	19.8 µM	40.7 µM	42 µM	16.3 µM	18.5 µM	73.5 µM	–	–	–	–	–	–	–	–	–	–
O=C1/C(=C\c2ccccn2)c2ccccc2N1c1c(Cl)cccc1Cl	15.3 µM	10.2 µM	4.81 µM	3.72 µM	3.22 µM	12.5 µM	8.34 µM	3.03 µM	37.4 µM	> 26.3 µM	3.29 µM	3.01 µM	1.98 µM	1.78 µM	1.69 µM	2.65 µM	2.41 µM	1.61 µM	3.92 µM	2.79 µM
CC1(CCC(=O)OC2CCCCC2)OCCO1	> 100 µM	> 100 µM	> 100 µM	> 100 µM	> 100 µM	> 100 µM	> 100 µM	> 100 µM	> 100 µM	> 100 µM	–	–	–	–	–	–	–	–	–	–
CC(C)(C)[Si](C)(C)OC1[C@@H](O[Si](C)(C)C(C)(C)C)[C@@H](CNC(=O)NC(=O)CCl)O[C@H]1n1cnc2c(NC(=O)Nc3ccccc3)ncnc21 (some centres not stated)	1.84 µM	1.5 µM	0.196 µM	1.98 µM	3.64 µM	1.69 µM	1.42 µM	1.55 µM	12.5 µM	1.19 µM	0.756 µM	0.799 µM	0.096 µM	0.978 µM	1.04 µM	0.786 µM	0.307 µM	0.833 µM	1.3 µM	0.381 µM
C=C1CCC2C(C)(COC(=O)CC)C(OC(=O)CC)CCC2(C)C1C/C=C1/C(=O)OCC1OC(=O)CC (configuration not stated)	13.2 µM	9.74 µM	1.7 µM	4.66 µM	3.75 µM	10.1 µM	2.13 µM	4.39 µM	25.5 µM	4.91 µM	3.39 µM	3.85 µM	0.346 µM	1.94 µM	1.86 µM	2.63 µM	0.634 µM	2.08 µM	3.41 µM	2.17 µM
Cc1cc(CC(C)CC(C)(C)C)n(O)c(=O)c1 (configuration not stated) (tested in a mixture with another compound)	22 µM	> 55.3 µM	4.23 µM	1.16 µM	21.3 µM	32.7 µM	> 100 µM	1.01 µM	> 62.1 µM	40 µM	0.559 µM	1.75 µM	0.475 µM	0.285 µM	0.602 µM	0.468 µM	0.41 µM	0.292 µM	8.07 µM	0.601 µM
Cc1cc(C)c(Cn2cnc3c(Cl)ncnc32)c(C)c1CCl	> 100 µM	> 100 µM	> 100 µM	> 100 µM	> 100 µM	> 100 µM	> 100 µM	> 100 µM	> 100 µM	> 100 µM	90.7 µM	53.7 µM	> 100 µM	99.4 µM	31.1 µM	> 100 µM	> 100 µM	> 100 µM	> 100 µM	> 100 µM
Nc1ccn(C2OC(COC(=O)C34CC5CC(CC(C5)C3)C4)C(O)C2O)c(=O)n1 (configuration not stated)	> 100 µM	> 100 µM	> 100 µM	> 100 µM	> 100 µM	> 100 µM	> 100 µM	> 100 µM	> 100 µM	> 100 µM	–	–	–	–	–	–	–	–	–	–
CN(Cc1cc(Cl)cc(Cl)c1)CC(C(=O)c1ccccc1)c1ccccc1 (configuration not stated)	7.06 µM	> 100 µM	4.39 µM	13.5 µM	17.5 µM	16.3 µM	21.2 µM	29.9 µM	> 57.7 µM	29.3 µM	–	–	–	–	–	–	–	–	–	–
Cc1nc(N2CCC3(CC2)CO[C@@H](C)[C@H]3N)c(CO)nc1Sc1ccnc(N)c1Cl	> 100 µM	> 100 µM	> 100 µM	> 100 µM	> 100 µM	> 100 µM	> 100 µM	35 µM	99.1 µM	> 100 µM	0.329 µM	0.789 µM	1.32 µM	> 100 µM	2.21 µM	12.2 µM	75.6 µM	14.1 µM	11 µM	> 100 µM
CNC(=O)Cc1nc(-c2cccc(NS(=O)(=O)c3c(F)cccc3F)c2F)c(-c2ccnc(Nc3ccccc3)n2)s1	> 50 µM	27.9 µM	> 50 µM	6.58 µM	> 50 µM	> 50 µM	> 50 µM	> 19.8 µM	43.7 µM	> 50 µM	4.42 µM	0.558 µM	7.22 µM	0.0108 µM	14.2 µM	1.71 µM	7.32 µM	0.0866 µM	0.482 µM	20.9 µM
COc1ccc(-c2c3c(n(C4OC(COC(C)=O)C(OC(C)=O)C(OC(C)=O)C4OC(C)=O)c(=S)c2C#N)CC(C)(C)CC3=O)cc1 (configuration not stated)	> 100 µM	> 100 µM	> 100 µM	> 100 µM	> 100 µM	> 100 µM	75.4 µM and > 100 µM	75.7 µM and > 100 µM	> 100 µM	> 100 µM	39.9 µM and > 100 µM	–	–	49.7 µM and > 100 µM	–	–	22.1 µM and > 100 µM	23.1 µM and 61.1 µM	–	–
OCC(O)c1nc2ccc3[nH]ncc3c2c2c1CCCC2 (configuration not stated)	2.46 µM	> 50 µM	9.87 µM	2.78 µM	> 50 µM	> 50 µM	> 50 µM	2.99 µM	4.26 µM	> 50 µM	1.07 µM	2.23 µM	1.5 µM	1.17 µM	1.62 µM	1.56 µM	1.45 µM	1.02 µM	1.4 µM	1.43 µM
Cc1cn2c(/C=N/N=C(N)N)c(-c3cccs3)nc2s1	24 µM	37.6 µM	47.9 µM	3.01 µM	8.3 µM	3.08 µM	36 µM	2.19 µM	32.6 µM	12.4 µM	11.7 µM	17.5 µM	16.9 µM	1.63 µM	2.39 µM	0.161 µM	13.2 µM	0.376 µM	11.4 µM	2.99 µM
COc1ccc(C(=O)c2cc3c(N)c(C(=O)Nc4ccc(C)cc4)sc3nc2C)cc1	44 µM	33.1 µM	11.2 µM	62.9 µM	> 100 µM	> 100 µM	> 100 µM	11.5 µM	17.9 µM	> 100 µM	6.24 µM	5.59 µM	2.06 µM	1.99 µM	2.44 µM	6.93 µM	5.25 µM	3.14 µM	2.29 µM	4.2 µM
COc1cc(Nc2nc3ccccc3cc2C(=O)Nc2ccc(F)c(F)c2)cc(OC)c1OC	8.51 µM	7.8 µM	6.97 µM	–	16 µM	> 100 µM	7.85 µM	3.11 µM	13.6 µM	7.9 µM	2.84 µM	2.65 µM	2.07 µM	2.74 µM	2.89 µM	3.43 µM	2.77 µM	1.62 µM	2.8 µM	2.21 µM
CN1C(=O)N[C@H]2[C@@H]3NC(=O)c4ccc(Br)n4[C@@H]3C[C@]21O	1.42 µM	5.5 µM	0.31 µM	0.236 µM	5.47 µM	2.19 µM	1.93 µM	0.0653 µM	1.42 µM	5.42 µM	0.0968 µM	1.37 µM	0.0384 µM	0.0454 µM	0.191 µM	0.106 µM	0.259 µM	< 0.0148 µM	0.102 µM	0.475 µM
CC(C)(C)CC(C)(C)NCc1cc(C(C)(C)C)cc(CNC(C)(C)CC(C)(C)C)c1O	7.8 µM	8.45 µM	3.66 µM	4.16 µM	11.2 µM	11.9 µM	12.4 µM	2.96 µM	20.7 µM	12.2 µM	2.42 µM	2.52 µM	1.78 µM	1.95 µM	3.32 µM	2.74 µM	3.25 µM	1.61 µM	3.22 µM	2.86 µM
CCN(CC)CCCC(C)N=C(C1=C(C(=NC(C)CCCN(CC)CC)c2cccc(OC)c2)C(=O)NC1=O)c1cccc(OC)c1 (configuration not stated)	9.11 µM	13.1 µM	2.03 µM	1.68 µM	6.36 µM	14.3 µM	6.9 µM	1.66 µM	14.5 µM	5.12 µM	2.52 µM	2.98 µM	0.989 µM	0.89 µM	1.81 µM	2.38 µM	1.18 µM	0.888 µM	4.24 µM	1.47 µM
N#CCN/C=C\C(=O)c1ccc(Cl)cc1	86.2 µM	> 100 µM	> 100 µM	> 100 µM	> 100 µM	> 100 µM	> 100 µM	38.8 µM	> 100 µM	> 100 µM	32.9 µM	34.7 µM	> 100 µM	20.3 µM	36.5 µM	39.3 µM	38.4 µM	17.6 µM	37.1 µM	29.5 µM
CCCCCCCCCCCCCCCCCC(=O)OCC(COC(=O)CCCN)OC(=O)CCCN (configuration not stated)	31.9 µM	34.3 µM	50.4 µM	31.4 µM	33.5 µM	31.6 µM	37.1 µM	–	43.7 µM	35.5 µM	–	–	–	–	–	–	–	–	–	–
O=C(O)C(Cl)(c1ccccc1)c1ccccc1	> 100 µM	> 100 µM	> 100 µM	> 100 µM	> 100 µM	> 100 µM	> 100 µM	> 100 µM	> 100 µM	> 100 µM	–	–	–	–	–	–	–	–	–	–
Cc1ccc(S(=O)(=O)NNC(=O)c2cc(C)c(C)cc2N)cc1	> 100 µM	> 100 µM	> 100 µM	–	> 100 µM	> 100 µM	> 100 µM	> 100 µM	> 100 µM	> 100 µM	–	–	–	–	–	–	–	–	–	–
COc1cccc(NC(=O)c2sc3nc4c(cc3c2N)C(=O)CCC4)c1	> 100 µM	> 78.1 µM	2.41 µM	> 100 µM	> 100 µM	> 100 µM	> 100 µM	> 100 µM	> 100 µM	> 100 µM	0.346 µM	0.183 µM	0.0499 µM	0.0943 µM	0.0569 µM	0.461 µM	0.402 µM	0.064 µM	0.0816 µM	0.11 µM
Cc1cc(C)c(NC(=S)NC(=O)c2ccccc2)cc1C	> 100 µM	> 100 µM	> 100 µM	> 100 µM	> 100 µM	> 100 µM	> 100 µM	> 100 µM	> 100 µM	> 100 µM	–	–	–	–	–	–	–	–	–	–
C=C(Nc1ccc([N+](=O)[O-])cc1[N+](=O)[O-])c1c/c(=N\NC(N)=S)c2ccccc2o1	> 100 µM	> 100 µM	> 100 µM	> 100 µM	> 100 µM	> 100 µM	> 100 µM	> 100 µM	> 100 µM	> 100 µM	–	–	–	–	–	–	–	–	–	–
COC(=O)c1cc(O)c2c(c1C(=O)OC)C[C@H]1[C@@H]3CC=C4C[C@@H](O)CC[C@]4(C)[C@H]3CC[C@]21C	23.5 µM	27.4 µM	5.44 µM	18.7 µM	12.2 µM	26.8 µM	16.9 µM	–	19.5 µM	13.3 µM	3.5 µM	4.75 µM	2.17 µM	3.47 µM	2.91 µM	3.57 µM	3.33 µM	–	2.78 µM	2.51 µM
COc1ccc(/C=N\Nc2ccc([N+](=O)[O-])cn2)cc1OC	> 100 µM	24.3 µM	> 100 µM	> 100 µM	–	> 100 µM	> 100 µM	> 100 µM	> 100 µM	> 100 µM	53.2 µM	3.48 µM	> 100 µM	> 100 µM	–	> 100 µM	> 100 µM	> 100 µM	21 µM	> 100 µM
